Each structure is given as a SMILES string. Where “and” joins values, the source holds several entries; their conditions need not be identical. Equal entries are not always repeated.

We go through one compound from ChEMBL document CHEMBL3243969, “Synthesis and chemical carcinogen inhibitory activity of 2-tert-butyl-4-hydroxyanisole” (J Med Chem, 1979).

Series [1] has as its system Mus musculus. The series is described as follows: Toxicity in ICR/Ha mouse forestomach assessed as body weight gained at 5 mg/kg administered through diet for 1 week prior to benzo[alpha]pyrene challenge and continued additional 2 days post last dose of benzo[alpha]pyrene relative to control. The series is classed as organism-based, Stomach. Also on record: dose 5 mg/kg. Conditions: in vivo, po.

Series [2] has as its system Mus musculus. The series is described as follows: Toxicity in ICR/Ha mouse forestomach assessed as diet intake at 5 mg/kg administered through diet for 1 week prior to benzo[alpha]pyrene challenge and continued additional 2 days post last dose of benzo[alpha]pyrene (reference value: 4.3 g/day). Format: organism-based, Stomach. Also on record: dose 5 mg/kg. Conditions: in vivo, po.

The test system of series [3] is Mus musculus. The series is described as follows: Antineoplastic activity in ICR/Ha mouse forestomach assessed as decrease in benzo[alpha]pyrene-induced tumor incidence at 5 mg/kg administered through diet for 1 week prior to benzo[alpha]pyrene challenge and continued additional 2 days post last dose of benzo[alpha]pyrene by dissecting microscopic analysis relative to control. The arrangement: scale not given: the % may be the effect or the level left. The series is classed as functional, Stomach.

In series [4] the test system is Mus musculus. Put plainly: Antineoplastic activity in ICR/Ha mouse forestomach assessed as inhibition of benzo[alpha]pyrene-induced tumor growth at 5 mg/kg administered through diet for 1 week prior to benzo[alpha]pyrene challenge and continued additional 2 days post last dose of benzo[alpha]pyrene by dissecting microscopic analysis relative to control. The series is classed as functional, Stomach.

The nature of series [5]: Antioxidant activity of the compound relative to control. Format: functional.

In general, TGI refers to the reduction of tumour growth relative to the control group. `COc1ccc(O)c(C(C)(C)C)c1.COc1ccc(O)cc1C(C)(C)C` [BUTYLATED HYDROXYANISOLE]: the Activity was 10.8 g and 7.4 g in series [1]; 3.6 g/day and 3.7 g/day in series [2]; 30% and 10% in series [3]. In addition, the tumour growth inhibition (TGI) in series [4] (5 mg/kg) was 50%. The inhibition in vivo at 5 mg/kg in series [4] (Mus musculus, ICR/Ha, Stomach, read-out: TGI) came to 70%. Also, in series [5], the fold change (FC) was 1.1 and 0.4.
